From ChEMBL document CHEMBL6182924, “Discovery of a Novel and Potent MET Transcription Inhibitor Targeting Promoter G-Quadruplex for the Treatment of NSCLC” (J Med Chem, 2025)
The source made the active and inactive calls. The rule behind the calls is not given here.

Columns and labels:
A549 [1] = experiment: Inhibition of c-MET expression in human A549 cells up to 2000 nM by Western blot analysis; assay type: functional, cell-based
[2] = Toxicity in BALB/c mouse xenografted with human A549 cells assessed as heart damage at 20 mg/kg, po administered once a day and measured after 20 days by H and E staining based analysis; assay type: organism-based; settings: in vivo, 480 h, time 20 day
A549 [3] = experiment: Induction of apoptosis in human A549 cells assessed as early apoptotic cells at 1 uM incubated for 24 hrs by Annexin V-FITC/PI staining based flow cytometry analysis (reference value: 1.73 %); assay type: functional
A549 [4] = experiment: Antitumor activity against human A549 cells xenografted in BALB/c mouse assessed as tumor growth inhibition at 20 mg/kg, ip administered once a day and measured up to 24 days; assay type: functional; settings: A549, 576 h, time <= 24 day, read-out: TGI
NCI-H1975 [5] = experiment: Induction of cell cycle arrest in human NCI-H1975 cells assessed as accumulation of cells at G1 phase at 0.5 uM measured for 24 hrs by PI/Rnase staining based flow cytometry (reference value: 79.2 %); assay type: functional
NCI-H1975 [6] = experiment: Induction of apoptosis in human NCI-H1975 cells assessed as late apoptotic cells at 0.5 uM incubated for 24 hrs by Annexin V-FITC/PI staining based flow cytometry analysis (reference value: 2.27 %); assay type: functional
[7] = Acute toxicity in Sprague-Dawley rat assessed as heart damage at 500 to 2000 mg/kg, po measured every 2 days by H and E staining based analysis; assay type: organism-based; settings: in vivo, 48 h, dose 500-2000 mg/kg, time 2 day
NCI-H1975 [8] = experiment: Induction of cell cycle arrest in human NCI-H1975 cells assessed as accumulation of cells at G2 phase at 2 uM measured for 24 hrs by PI/Rnase staining based flow cytometry (reference value: 14.8 %); assay type: functional
NCI-H1975 [9] = experiment: Induction of cell cycle arrest in human NCI-H1975 cells assessed as accumulation of cells at G2 phase at 0.5 uM measured for 24 hrs by PI/Rnase staining based flow cytometry (reference value: 14.8 %); assay type: functional
NCI-H1975 [10] = experiment: Induction of apoptosis in human NCI-H1975 cells assessed as necrotic cells at 0.5 uM incubated for 24 hrs by Annexin V-FITC/PI staining based flow cytometry analysis (reference value: 7.33 %); assay type: functional
A549 [11] = experiment: Induction of apoptosis in human A549 cells assessed as late apoptotic cells at 2 uM incubated for 24 hrs by Annexin V-FITC/PI staining based flow cytometry analysis (reference value: 2.56 %); assay type: functional
[12] = Toxicity in BALB/c mouse xenografted with human A549 cells assessed as body weight loss at 20 mg/kg, po administered once a day and measured after 20 days; assay type: organism-based; settings: in vivo, 480 h, time 20 day
[13] = Toxicity in BALB/c mouse xenografted with human A549 cells assessed as liver damage at 20 mg/kg, po administered once a day and measured after 20 days by H and E staining based analysis; assay type: organism-based; settings: in vivo, 480 h, time 20 day
A549 [14] = experiment: Antiproliferative activity against MET knockdown human A549 cells assessed as inhibition of cell growth by CCK-8 assay; assay type: functional, cell-based
NCI-H1975 [15] = experiment: Induction of apoptosis in human NCI-H1975 cells assessed as viable cells at 1 uM incubated for 24 hrs by Annexin V-FITC/PI staining based flow cytometry analysis (reference value: 90.1 %); assay type: functional; settings: read-out: Activity
A549 [16] = experiment: Downregulation of c-Met mRNA expression in human A549 cells at 0.5 to 1 uM incubated for 24 hrs by qRT-PCR analysis; assay type: functional, cell-based; settings: dose 0.5-1 µM
BaF3 [17] = experiment: Antiproliferative activity against mouse BaF3 cells harboring TPR-MET L1195V mutant incubated for 24 hrs by CCK-8 assay; assay type: functional, cell-based; settings: BaF3, 24 h
BaF3 [18] = experiment: Antiproliferative activity against mouse BaF3 cells harboring TPR-MET D1228N mutant incubated for 24 hrs by CCK-8 assay; assay type: functional, cell-based; settings: BaF3, 24 h
[19] = Acute toxicity in Sprague-Dawley rat at 500 to 2000 mg/kg, po measured every 2 days; assay type: organism-based; settings: in vivo, 48 h, dose 500-2000 mg/kg, time 2 day
NCI-H1975 [20] = experiment: Induction of apoptosis in human NCI-H1975 cells assessed as early apoptotic cells at 2 uM incubated for 24 hrs by Annexin V-FITC/PI staining based flow cytometry analysis (reference value: 0.35 %); assay type: functional
Quadruplex DNA = experiment: Binding affinity to c-MET G4-quadruplex DNA (unknown origin) assessed as change in melting temperature
A549 [21] = experiment: Inhibition of cell migration in human A549 cells incubated for 12 hrs by crystal violet staining based analysis; assay type: functional; settings: dose 0.5-2 µM
NCI-H1975 [22] = experiment: Induction of cell cycle arrest in human NCI-H1975 cells assessed as accumulation of cells at G1 phase at 2 uM measured for 24 hrs by PI/Rnase staining based flow cytometry (reference value: 79.2 %); assay type: functional
A549 [23] = experiment: Induction of apoptosis in human A549 cells assessed as late apoptotic cells at 0.5 uM incubated for 24 hrs by Annexin V-FITC/PI staining based flow cytometry analysis (reference value: 2.56 %); assay type: functional
A549 [24] = experiment: Induction of cell cycle arrest in human A549 cells assessed as accumulation of cells at G1 phase at 0.5 uM measured for 24 hrs by PI/Rnase staining based flow cytometry (reference value: 75.2 %); assay type: functional
A549 [25] = experiment: Inhibition of colony formation in human A549 cells incubated for 2 weeks by crystal violet staining based analysis; assay type: functional, cell-based; settings: dose 0.5-2 µM
A549 [26] = experiment: Induction of cell cycle arrest in human A549 cells assessed as accumulation of cells at G1 phase at 1 uM measured for 24 hrs by PI/Rnase staining based flow cytometry (reference value: 75.2 %); assay type: functional
[27] = Acute toxicity in Sprague-Dawley rat assessed as liver damage at 500 to 2000 mg/kg, po measured every 2 days by H and E staining based analysis; assay type: organism-based; settings: in vivo, 48 h, dose 500-2000 mg/kg, time 2 day
NCI-H1975 [28] = experiment: Induction of apoptosis in human NCI-H1975 cells assessed as late apoptotic cells at 2 uM incubated for 24 hrs by Annexin V-FITC/PI staining based flow cytometry analysis (reference value: 2.27 %); assay type: functional
A549 [29] = experiment: Induction of cell cycle arrest in human A549 cells assessed as accumulation of cells at G2 phase at 1 uM measured for 24 hrs by PI/Rnase staining based flow cytometry (reference value: 13.4 %); assay type: functional
A549 [30] = experiment: Antitumor activity against human A549 cells xenografted in BALB/c mouse assessed as tumor growth inhibition at 20 mg/kg, po administered once a day and measured up to 24 days; assay type: functional; settings: A549, 576 h, time <= 24 day, read-out: TGI
NCI-H1975 [31] = experiment: Induction of apoptosis in human NCI-H1975 cells assessed as necrotic cells at 2 uM incubated for 24 hrs by Annexin V-FITC/PI staining based flow cytometry analysis (reference value: 7.33 %); assay type: functional
NCI-H1975 [32] = experiment: Induction of apoptosis in human NCI-H1975 cells assessed as necrotic cells at 1 uM incubated for 24 hrs by Annexin V-FITC/PI staining based flow cytometry analysis (reference value: 7.33 %); assay type: functional
[33] = Toxicity in BALB/c mouse xenografted with human A549 cells assessed as lung damage at 40 mg/kg, po administered once a day and measured after 20 days by H and E staining based analysis; assay type: organism-based; settings: in vivo, 480 h, time 20 day
A549 [34] = experiment: Downregulation of c-Met expression in human A549 cells at 1 uM by Western blot analysis; assay type: functional, cell-based; settings: time <= 72.0 hrs

Compound: COc1cccc(-c2ccc(-c3nc4c5cccnc5c5ncccc5c4[nH]3)o2)c1
- inhibition (A549 [1]): Active
- Activity [2]: Non-toxic
- Activity (A549 [3]): 6.47%
- inhibition in vivo at 20 mg/kg (A549 [4]): 55.6%
- Activity (NCI-H1975 [5]): 80.5%
- Activity (NCI-H1975 [6]): 8.12%
- Activity [7]: Non-toxic
- Activity (NCI-H1975 [8]): 11%
- Activity (NCI-H1975 [9]): 13%
- Activity (NCI-H1975 [10]): 4.81%
- Activity (A549 [11]): 23.5%
- Activity [12]: Non-toxic
- Activity [13]: Non-toxic
- Activity (A549 [14]): Active
- viability at 1 µM (NCI-H1975 [15]): 83.6%
- Activity (A549 [16]): Active
- IC50 (BaF3 [17]): 510 nM
- IC50 (BaF3 [18]): 400 nM
- Activity [19]: Non-toxic
- Activity (NCI-H1975 [20]): 2.21%
- ΔTm (Quadruplex DNA): 10.8 °C
- inhibition (A549 [21]): Dose-dependent-effect
- Activity (NCI-H1975 [22]): 84.2%
- Activity (A549 [23]): 7.9%
- Activity (A549 [24]): 75.4%
- inhibition (A549 [25]): Dose-dependent-effect
- Activity (A549 [26]): 77.2%
- Activity [27]: Non-toxic
- Activity (NCI-H1975 [28]): 14.2%
- Activity (A549 [29]): 10.4%
- inhibition in vivo at 20 mg/kg (A549 [30]): 43%
- Activity (NCI-H1975 [31]): 3.94%
- Activity (NCI-H1975 [32]): 4.06%
- Activity [33]: Non-toxic
- Activity (A549 [34]): Time-dependent-effect
